According to PubChem BioAssay (NCI):
“And” between values parts separate entries of the source, which are not always exact repeats. Equal values may be shown once.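 Growth conditions: 96-well plates. Treatment: test compound, 48 hours, 5 concentrations. Analysis: linear interpolation between bracketing concentrations; unreached endpoints set to highest concentration. GI50 marks 50% less growth. At the TGI there is no net growth.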

Columns and labels:
Experiment in all cases: growth of human tumour cells (NCI), 48 h
[1] = test system: HOP-62 NSCLC
[2] = test system: HCT-116 colon
[3] = test system: IGROV1 ovarian
[4] = test system: KM12 colon
[5] = test system: SK-OV-3 ovarian
[6] = test system: NCI-H460 lung
[7] = test system: K-562 leukemia
[8] = test system: UACC-257 melanoma
[9] = test system: HCT-15 colon
[10] = test system: SF-539 CNS

Structure (SMILES) | TGI [1] | TGI [2] | TGI [3] | TGI [4] | TGI [5] | TGI [6] | TGI [7] | TGI [8] | TGI [9] | TGI [10] | GI50 [10] | GI50 [1] | GI50 [2] | GI50 [3] | GI50 [4] | GI50 [5] | GI50 [6] | GI50 [8] | GI50 [9] | GI50 [7]
CCOc1ccccc1NC(=O)CCC(=O)OC | > 100 µM | > 100 µM | > 100 µM | > 100 µM | > 100 µM | > 100 µM | > 87.8 µM | > 100 µM | > 100 µM |  |  |  |  |  |  |  |  |  |  | 
COc1ccc(S(=O)(=O)NC(C)C(=O)O)cc1 (configuration not stated) |  |  | > 100 µM | > 100 µM | > 100 µM | > 100 µM | > 100 µM | > 100 µM | > 100 µM | > 100 µM |  |  |  |  |  |  |  |  |  | 
COC(=O)[C@@H](NC(=O)NC(=O)NC(=O)CI)C(C)C | 33.7 µM | 24.6 µM | 13.9 µM | 33.8 µM | 33 µM | 38.2 µM |  | 27.8 µM | 3.16 µM | 14.8 µM | 3.92 µM | 18.3 µM | 12.2 µM | 3.87 µM | 17.4 µM | 18.3 µM | 18.9 µM | 13.6 µM | 1.66 µM | 
C#CCC[C@@H]1O[C@@]1(C)CC/C=C(\C)CC/C=C/C=O | > 100 µM |  | 49.6 µM | > 100 µM | > 100 µM | > 100 µM | 54 µM | 69.7 µM | > 100 µM | 38.7 µM |  |  |  |  |  |  |  |  |  | 
CC(C)=CCN=C(N)N |  | > 100 µM | > 100 µM | > 100 µM | > 100 µM | > 100 µM |  | > 100 µM | > 100 µM | > 100 µM |  |  |  |  |  |  |  |  |  | 
COc1cccc([C@H]2CC(=O)c3cc4c(cc3N2)OCO4)c1 | > 100 µM | > 100 µM |  | 1.25 µM | > 100 µM |  |  | > 100 µM | > 100 µM |  | 0.084 µM | 2.56 µM | 0.0604 µM |  | 0.0336 µM | 0.556 µM |  | 0.0414 µM | 0.0434 µM | 
[O-]/[N+](=C\c1ccccc1)[C@H](COCc1ccccc1)c1ccccc1 | > 100 µM | > 100 µM | > 100 µM | > 100 µM | > 100 µM | > 100 µM | > 100 µM | > 100 µM |  | > 100 µM |  |  |  |  |  |  |  |  |  | 
Cc1cc(C)nc(NC(N)=NCCc2ccccc2)n1 | 53.1 µM | > 100 µM |  | > 100 µM | 28.9 µM | > 100 µM | > 100 µM | 39.4 µM | > 100 µM | 26.2 µM | 2.56 µM | 3.16 µM | 2.78 µM |  | 3.62 µM | 2.65 µM | 3.43 µM | 2.64 µM | 5.09 µM | 3.56 µM
CCC1(C)NN=c2s/c(=C/c3ccc(OC)cc3)c(=O)n2N1 (configuration not stated) | > 100 µM | > 100 µM | > 100 µM | > 100 µM | > 100 µM | > 100 µM | > 100 µM |  |  | > 100 µM |  |  |  |  |  |  |  |  |  | 
CC1[C@@H]2[C@@H](C=C3C4CCC5Cc6nc7c(nc6C[C@@]5(C)C4C[C@H](O)[C@]32CO)CC2CCC3C4=C[C@H]5O[C@@]6(O[C@@](C)(CO)C[C@@H]6O)C(C)[C@@]5(O)[C@]4(C)[C@@H](O)CC3[C@]2(C)C7)O[C@]12CCC(C)(C)O2 (some centres not stated) |  | 0.406 µM and 1.42 µM | > 3.65 µM | 0.611 µM and > 3.65 µM | 0.0991 µM and 0.0224 µM | 0.132 µM and 0.104 µM |  | 0.305 µM and 0.392 µM | 0.81 µM and 0.626 µM |  | 0.00363 µM | < 0.000365 µM |  | 0.0049 µM | 0.17 µM | < 0.000365 µM | 0.000713 µM |  | 0.0744 µM | 
NNC(=S)N/N=C(\CCCC(=O)NCCc1ccccc1)CC(=O)c1ccccc1 | > 100 µM | > 100 µM | > 100 µM | > 100 µM |  | > 100 µM |  | > 100 µM | > 100 µM | > 100 µM |  |  |  |  |  |  |  |  |  | 
O=C(O)CN(c1ccccc1)S(=O)(=O)c1ccc(NC(=O)c2ccccc2)cc1 |  |  | > 100 µM |  | > 100 µM | > 100 µM | > 100 µM | > 100 µM | > 100 µM | > 100 µM |  |  |  |  |  |  |  |  |  | 
COc1cc(CCc2cccnc2)cc(OC)c1OC | > 100 µM | > 100 µM | > 100 µM | > 100 µM |  | > 100 µM | > 100 µM | > 100 µM | > 100 µM | > 100 µM |  |  |  |  |  |  |  |  |  | 
COc1ccc(/C=C2\CN(C)Cc3c2nc(N)nc3-c2ccc(OC)cc2)cc1 | > 100 µM | > 100 µM | > 100 µM | > 100 µM | > 100 µM | > 100 µM | > 100 µM |  |  | > 100 µM |  |  |  |  |  |  |  |  |  | 
CN1CCc2cc3c(cc2C1O)OCO3 (configuration not stated) | 36.2 µM and > 100 µM | 36.2 µM and > 100 µM | 33.2 µM and > 100 µM | 22.5 µM and > 100 µM | 31.7 µM and > 100 µM |  | > 100 µM | 10.8 µM and > 100 µM | 45 µM and > 100 µM | 29.4 µM and > 100 µM | 12.8 µM and > 100 µM | 18 µM and > 100 µM | 19.2 µM and > 100 µM | 10.7 µM and > 100 µM |  | 17.5 µM and > 100 µM |  |  | 20.8 µM and > 100 µM | 
COC(=O)Cc1cc(OC)c(OC)cc1Br | > 100 µM | > 100 µM |  | > 100 µM | > 100 µM | > 100 µM | > 100 µM | > 100 µM |  |  |  |  |  |  |  |  |  |  |  | 
CN1C(=O)c2c(ccc3c2OCO3)C2C(O)Cc3cc4c(cc3C21)OCO4 (configuration not stated) |  | > 100 µM | 8.85 µM | 21.6 µM | 8.37 µM | > 100 µM | 60.2 µM |  | 24.7 µM | 16.8 µM |  |  |  |  |  |  |  |  |  | 
CCOc1ccc(NC(=O)CC2SC(=Nc3ccc(Cl)cc3)NC2=O)cc1 (configuration not stated) | > 100 µM |  | > 100 µM | > 100 µM | > 100 µM | > 100 µM | 76.4 µM | > 100 µM | > 100 µM | > 100 µM |  |  |  |  |  |  |  |  |  | 
Cc1ccc(S(=O)(=O)N/N=C/c2oc(-c3cccc([N+](=O)[O-])c3)c(-c3cccc([N+](=O)[O-])c3)c2[N+](=O)[O-])cc1 |  | > 100 µM | 91.2 µM | > 100 µM | 68.5 µM | > 100 µM | 69.9 µM | > 100 µM | > 100 µM | > 100 µM |  |  |  |  |  |  |  |  |  | 
COc1cc2c(cc1O)C=NCC2 |  | > 100 µM | > 100 µM | > 100 µM | > 100 µM | > 100 µM | > 100 µM | > 100 µM | > 100 µM | > 100 µM |  |  |  |  |  |  |  |  |  | 
c1ccc(SC2(Sc3ccccc3)CCCC2)cc1 | > 100 µM | > 100 µM |  | > 100 µM | > 100 µM | > 100 µM | > 100 µM | > 100 µM | > 100 µM | > 100 µM |  |  |  |  |  |  |  |  |  | 
